Experimental findings from patent US20090076050A1, “SYNERGISTIC TUMOR-KILLING EFFECT OF RADIATION AND BERBERINE COMBINED TREATMENT IN LUNG CANCER” (CHUNG SHAN MEDICAL U., priority 2007, published 2009) are described below.

Structures are written as SMILES.

One assay has as its system LLC cells. The assay is described as follows: MTT cell viability, berberine combined with IR, LLC cells. Type of assay: cell-based. The following applies: LLC cells (data not shown). An excerpt:
The data were depicted in FIG. 1C after normalization.

Another assay concerns A549 cells. As to the kind of experiment: clonogenic survival assay (linear-quadratic model). Type of assay: cell-based, human. As to the method:
Cells were cultured in phenol-red-free medium and irradiated with a […] (Varian, 21-EX). The radiation was delivered as a single dose ranging from 2 to 8 Gy in an appropriate field size at a dose rate of 400 cGy/min. A 3-cm polystyrene block was used under the petri dishes during each irradiation to allow homogeneous backscattering radiation. Control cells were removed from the incubator and placed for the same period of time under the IR source but without radiation treatment. In the combined treatment mortality tests, berberine was added 2 h prior to irradiation.
The enhancing effect of berberine on radio-sensitivity in NSCLC was performed by treating A549 with various concentrations of berberine alone or combined with different dose of IR at 37° C. for 24 h or 48 h followed by MTT assay for cell viability analysis. Thereafter, the medium was changed and incubated with 100 μl MTT (Sigma St Louis, Mo.)/well for 4 h, which was solubilized in isopropanol, and measured spectrophotometrically at 563 nm. […] To further ascertain the effect of berberine on the lethality of IR, clonogenic survival assay was performed to examine long term survival. IR or berberine-treated cells (1000 cells) were plated onto 10 cm tissue culture dish in five replicates. After 14 days, colonies were fixed with methanol, stained with 0.25% crystal violet, and counted if they were consisted of more than 50 cells. The fraction of colonies survived from the irradiation was normalized to that of the corresponding control. The curves were fitted to the data using linear-quadratic model. The data were depicted in FIG. 1C after normalization.
Statistical significances were analyzed by student t-test or one-way analysis of variance (ANOVA) with post-hock Dunnett's test. P-value≦0.05 was considered statistically significant (Sigma-Stat 2.0, San Rafael, Calif., USA). Survival fraction curve was analyzed by KaleigaGraph 4.0 then fitted to the data using linear-quadratic model. Combination index was analyzed by CalcuSyn.

For the next assay, the system named is beclin-1. As to the kind of experiment: immunohistochemistry of beclin-1 in xenograft. Type of assay: in vivo, C57BL/6 mice. The following applies: co-treatment groups (berberine + IR). On the procedure:
(§1) The application of the additive cytotoxicity of IR combined with berberine in cancer treatment was further evidenced in an in vivo Lewis lung carcinoma (LLC) model in mice (Camphausen K, et al. Cancer Res 2001; 61:2207-11). Male C57BL/6 mice aged 4-6 weeks (National Taiwan University Animal Center, Taiwan) were used. To form a tumor xenograft, Lewis lung cells (2×10^6) were injected s.c. into the right hind limb. Animals were randomized into six groups: control, irradiation (IR) alone, berberine (1.0, 2.0 mg/kg) alone, and IR combined with berberine (1.0, 2.0 mg/kg). For tumor irradiation, mice were immobilized in a customized harness that exposed the right hind leg while shielding the remainder of the body by 3.5 cm of lead. Mice were exposed to a single dose of 8 Gy. […] To obtain tumor growth curves, three orthogonal tumor diameters were measured every 4-day intervals with a vernier caliper, and the mean values were calculated. […] Primary tumor growth delay was measured by calipers in two dimensions, and the volumes were calculated according to the formula: tumor volume=(width) 2×length×0.52. […] The tumor volume at the primary site of each group was measured before treatment, and the average tumor volume was designated as T0. When the animals were sacrificed at the end of experiment, the xenografts were removed, and the tumor volume was determined and presented as fold of T0. […]

For a further assay, the system named is bcl-2. The assay is described as follows: immunohistochemistry of bcl-2 in xenograft. Type of assay: in vivo, C57BL/6 mice. On the procedure:
as §1

Consider `COc1ccc2cc3[n+](cc2c1OC)CCc1cc2c(cc1-3)OCO2` [berberine, Berberine], for which the “dose and time dependent synergic-killing effect” value in the assay on LLC cells is “also observed”. Moreover, the “decrease in the D0 value” in the assay with A549 cells (10 μM berberine vs IR alone) was 4.2 fold. The “D0 (dose of radiation producing a 37% survival rate)” value is 4.01 Gy in the assay with A549 cells (IR + 2.5 μM berberine), 2.70 Gy with A549 cells (IR + 5.0 μM berberine) and 1.24 Gy in the assay with A549 cells (IR + 10 μM berberine). The SF2 is listed as 0.3184 with A549 cells (IR + 2.5 μM berberine), 0.2152 with A549 cells (IR + 5.0 μM berberine) and 0.0991 in the assay on A549 cells (IR + 10 μM berberine). Moreover, in the assay on beclin-1, the “beclin-1 protein expression in xenograft” value is “remarkable increased”. For the same compound, the “bcl-2 protein expression in xenograft” value with bcl-2 (berberine alone groups) and with bcl-2 (co-treatment groups (berberine + IR)) was “reduced” each time.
